Experimental data from patent US7115590B1 (University College Cardiff Consultants Limited, priority 1999, dated 2006).
Read-outs that look alike come from different tables or passages of the source.

How the values were obtained:
Hepatitis B Virus = test: Anti-Hepatitis B Virus activity; type: cell-based
Experimental: Compounds were tested for anti-Hepatitis B Virus activity according to the method described by Jansen, R. et al., Antimicrobial Agents and Chemotherapy, Vol. 37, No. 3, pp. 441–447, 1993, and results are shown in the table below.

[1] = type: in vitro ADME; details: normal heparized human plasma, 37° C.
Experimental: Each compound was incubated in normal heparized human plasma at 37° C. At selected time points duplicate samples were removed and deproteinated by acetonitrile extraction. Drug concentrations were then determined by LC/MS/MS analysis using standard methods.

[2] = Acid stability, acid-mediated hydrolytic decomposition simulating stomach conditions (HPLC); type: physicochemical; details: dilute hydrochloric acid pH 1, 37° C., initial 0.3 mg/ml
Experimental: Compounds according to the invention were tested for their stability towards acid-mediated hydrolytic decomposition employing a test designed to simulate stomach conditions. Each compound was incubated at an initial concentration of 0.3 mg/ml in dilute hydrochloric acid at pH 1 at 37° C. HPLC was run immediately for t=0 and at intervals up to approximately 24 hours.

Structure (SMILES) | Selectivity Index (Hepatitis B Virus; vs. HBV) | IC50 (Hepatitis B Virus; Hepatitis B virus; read-out: IC50 (mM) vs. HBV) [nM] | melting point [°C] | IC50 (Hepatitis B Virus; Hepatitis B virus, read-out: IC50 (mM) vs. HBV) [nM] | Half-life [1] [h] | half-life, acid stability [2] [h]
Nc1ncnc2c1ncn2[C@@H]1C=C[C@H](COP(=O)([O-])N[C@@H](Cc2ccccc2)C(=O)[O-])C1.[Na+].[Na+] (relative stereo) [Example 8] | >1800 | – | – | – | – | –
Nc1ncnc2c1ncn2[C@@H]1C=C[C@H](CO)C1 (relative stereo) [Example 1, (1R,cis)-4-(6-Amino-9H-purin-9-yl)-2-cyclopentene-1-methanol] | >200 | 980 | 195 to 200 | – | – | –
COC(=O)C(C)(C)NP(=O)(OC[C@H]1C=C[C@@H](n2cnc3c(N)ncnc32)C1)Oc1ccccc1 (stereo partly drawn) [Example 9] | 5000 | – | – | 2 | – | –
CCOC(=O)[C@H](Cc1ccccc1)NP(=O)(OC[C@H]1C=C[C@@H](n2cnc3c(N)ncnc32)C1)Oc1ccccc1 (relative stereo) [Example 7] | 5000 | – | – | – | 53 | 76
